melting point [°C] | SMILES
181 to 183 | Cc1c(Cl)cc(S(N)(=O)=O)cc1[N+](=O)[O-]
95 to 97 | O=C(CCl)NCc1ccc(F)cc1C(F)(F)F
284 to 286 | O=c1[nH]cnc2ccc([N+](=O)[O-])cc12
93 to 95 | CS(=O)(=O)c1ccc(OCCCBr)cc1
89 to 91 | COC(=O)c1cc(S(=O)(=O)Cl)ccc1Br
84 to 86 | CCOC(=O)c1c(CBr)oc2ccccc12
86 to 90 | O=C(O)Cc1ccc2c(c1)CCC2
391 to 393 | Cn1c(=O)[nH]c2cc(C(=O)O)ccc21
84 to 86 | CCOc1c(Br)cc(C=O)cc1OC
192 to 194 | Nc1ccc(CCN2CCOC2=O)cc1
233 to 235 | COC(=O)c1[nH]n(-c2ccc(C(=O)O)cc2)c(=O)c1CCO
111 to 113 | CC(C)(C(=O)O)c1ccccc1Cl
73 to 77 | CCOC(=O)CNc1ccc(F)cc1
142 to 144 | N#Cc1ccc(CS(=O)(=O)NN)cc1
83 to 85 | Cc1cccc2c1OCC2=O
272 to 274 | Cc1nnc(-c2ccc(C(=O)O)cc2)[nH]1
29 to 31 | O=S(=O)(Cl)c1ccc(Br)c(C(F)(F)F)c1
327 to 329 | N#Cc1cc2ccccc2[nH]c1=O
49 to 51 | COc1cc(CCl)ccc1[N+](=O)[O-]
193 to 195 | Cc1[nH]c2ccc(Cl)cc2c1C(=O)O
103 to 105 | NC(=O)c1ccc(CO)c(F)c1
71 to 73 | COC(=O)C1CCc2ccccc2C1=O (stereo not given)
118 to 120 | CCNc1nc2cc(Cl)ccc2s1

melting point [°C] | SMILES
150 to 152 | CCN(CC)S(=O)(=O)c1ccc(CCC(=O)O)cc1
217 to 219 | O=c1[nH]c(CCl)nc2cc(-c3ccc(Cl)cc3)sc12
111 to 113 | CC(N)CCc1ccc(O)cc1 (stereo not given)
94 to 96 | BrCCOc1ccc2ccccc2c1
130 to 132 | Cn1cc([N+](=O)[O-])cc1C(=O)NCC(=O)O
137 to 139 | COc1ccc(Br)cc1C(=O)C(=O)O
219 to 221 | COc1cc2[nH]nnc2cc1C(=O)O
178 to 180 | Cc1ccc(S(=O)(=O)N2CCCC2)cc1C(=O)O
87 to 89 | N#CCN1CCc2ccc(N)cc21
119 to 120 | O=c1cc(CCl)c2c(ccc3ccccc32)o1
162 to 164 | COc1cccc(-c2nn(-c3ccc(C)cc3)cc2C(=O)O)c1
180 to 184 | COc1ccc(S(=O)(=O)N2CCOCC2)cc1C(=O)O
110 to 112 | CC1CC(=O)N(Cc2ccccc2)c2ccccc2N1 (stereo not given)
158 to 160 | COc1ccc(-c2cnc(CCC(=O)O)o2)cc1
144 to 146 | COc1cccc(C(=O)NN)c1O
144 to 146 | CC(Cl)C(=O)Nc1c(Cl)cccc1Cl (stereo not given)
99 to 103 | Cc1cc(C(=O)CCl)c(C)n1-c1ccc2c(c1)OCCO2
139 to 141 | C=CCn1c(S)nc2cc(Cl)ccc2c1=O
136 to 138 | COC(=O)c1cc(S(N)(=O)=O)ccc1O
80 to 82 | O=[N+]([O-])c1sccc1Br
105 to 107 | COc1cccc2c1CCC2=O
153 to 155 | COc1ccccc1-n1nnnc1S
136 to 138 | COC(=O)c1cc2ccc(OCc3ccccc3)cc2[nH]1

Further lines, the compound ahead of its results:

SMILES | melting point [°C]
NC(=O)C1CCCN(Cc2ccccc2N)C1 (stereo not given) | 133 to 135
NC(=O)C1CCN(Cc2cccc(N)c2)CC1 | 139 to 141
CC(C)CC(=O)N1Cc2ccccc2CC1C(=O)O (stereo not given) | 169 to 171
NC(CN1CCc2ccccc21)=NO | 93 to 95
N#Cc1ccc(S(=O)(=O)N2CCC(O)CC2)cc1 | 161 to 163
Cc1cccc(/C=C/c2cc(C(=O)O)c3cc(Br)ccc3n2)c1 | 286 to 288
CS(=O)(=O)Nc1ccccc1Br | 79 to 81
O=S(=O)(c1ccc(OCCBr)cc1)N1CCOCC1 | 137 to 138
N#Cc1ccc2ncc(C=O)n2c1 | 184 to 186
O=C(O)c1cc(C2CC2)nc2c1cnn2Cc1ccncc1 | 238 to 240
O=S(=O)(c1ccc(Br)s1)N1CCNCC1 | 195 to 205
O=C(O)C1CC(=O)N(c2cn[nH]c2)C1 (stereo not given) | 259 to 261
NC(=NO)c1ccc2c(c1)OCO2 | 164 to 166
N#Cc1ccc2c(c1)CCCC2=O | 132 to 134
Fc1c(Br)cncc1Br | 97 to 99
NC(=O)CCC1CCNCC1 | 64 to 66
O=C(O)c1cc(Cl)no1 | 139 to 141
COC(=O)c1cnc(N)nc1 | 209 to 211
O=C(O)CCc1nc(-c2ncccn2)no1 | 202 to 204
Nc1ccc2c(c1)CCN2C(=O)c1ccoc1 | 173 to 175
Cc1cc(C(=O)O)c2c(C)nn(-c3ccccc3)c2n1 | 195 to 197
Cc1ccccc1-n1c(S)nc2ccccc2c1=O | 96 to 97
COc1cc2nc(N3CCN(C(=O)C4COc5ccccc5O4)CC3)nc(N)c2cc1OC (stereo not given) | 279 to 281
Brc1cccn2cnnc12 | 184 to 186
CC(C)C(C)(CC(=O)N1CCOCC1)C(=O)O (stereo not given) | 134 to 136

SMILES | melting point [°C]
Cc1cc2c(Cl)ncnc2s1 | 79 to 81
O=C(O)CCC(=O)c1cccc(F)c1 | 94 to 96
Cc1cc(C)c(C(=O)O)o1 | 145 to 147
O=C(CSc1cccs1)Nc1ccc(C(=O)O)cc1 | 233 to 235
N#CCc1c[nH]c2ccc(F)cc12 | 54 to 56
Cc1oncc1C(=O)Nc1ccc(C(=O)O)c(O)c1 | 214 to 216
CSCc1nc2ccccc2n1CC(=O)O | 221 to 225
O=C(O)c1cc(Br)sc1Br | 179 to 181
N#Cc1cccc(C(=O)NCc2ccco2)c1 | 86 to 88
CC(C)(C)c1n[nH]cc1C=O | 131 to 133
O=[N+]([O-])c1ccc(CBr)c(F)c1 | 59 to 61
O=C(O)Cc1cc(=O)n(-c2ccccn2)[nH]1 | 98 to 100
Cc1n[nH]c(C)c1CO | 178 to 180
CC1CCCC(C)N1C(=O)CCl (stereo not given) | 71 to 73
O=C(NCCS(=O)(=O)Cl)OCc1ccccc1 | 39 to 41
CCOC(C)c1nc(CC(=O)O)cs1 (stereo not given) | 91 to 93
N=C(N)NS(=O)(=O)c1ccccc1 | 211 to 213
CC(=O)N1CCC(CCC(=O)O)CC1 | 119 to 121
CCCOc1cc2c(cc1OCCC)CCNCC2 | 61 to 63
CC1NCCNC1=O (stereo not given) | 65 to 67
Cc1cc2c(cc1C)OC(C(=O)O)C2 (stereo not given) | 149 to 151
CC(Cl)C(=O)Nc1ccc(I)cc1 (stereo not given) | 159 to 161
O=c1ccc(-n2cncn2)n[nH]1 | 240 to 242
NC(=O)N1CCCC1CO (stereo not given) | 94 to 96
Cc1nc(NC(=N)N)nc2ccccc12 | 339 to 341

SMILES | melting point [°C]
CCc1cc(O)ncn1 | 135 to 137
COc1cc(C2(C(=O)O)CCCC2)ccc1C | 163 to 165
O=C(O)c1oc2ccccc2c1COc1ccccc1 | 163 to 165
Cc1[nH]ccc1C(=O)O | 167 to 169
Clc1nc(CSc2ccccc2)nc2sc3c(c12)CCCC3 | 55 to 57
Cc1csc(NC(=O)C2CCNCC2)n1 | 189 to 191
O=C(O)c1ccc(OCC2CCCO2)cc1 (stereo not given) | 130 to 132
Cc1ncsc1C(=O)NN | 168 to 170
CC(NC(N)=O)C12CC3CC(CC(C3)C1)C2 (stereo not given) | 159 to 161
CS(=O)(=O)c1ccsc1N | 90 to 92
NC(=NO)c1cccnc1N1CCCCC1 | 149 to 151
O=C(O)CCNS(=O)(=O)c1ccc(OC(F)(F)F)cc1 | 150 to 152
NCCC(O)(c1ccccc1)C(F)(F)F (stereo not given) | 110 to 112
Cc1ccc(NS(=O)(=O)c2cc(N)ccc2Cl)c(C)c1 | 57 to 59
O=C(O)c1cnoc1-c1ccc(Cl)s1 | 191 to 193
Nc1nnc(C=Cc2ccco2)s1 | 218 to 220
Cn1c(-c2ccccc2)cnc1SCC(=O)O | 199 to 201
CC(C)(C)n1ncc(C(=O)O)c1C(F)(F)F | 110 to 112
N#Cc1cnccc1N | 170 to 172
O=C(O)C1CC(c2ccc(Cl)cc2)C1 (stereo not given) | 119 to 121
NS(=O)(=O)c1cnn(CC(=O)O)c1 | 156 to 158
CCNC(=O)NC1(C(=O)O)CCCC1 | 142 to 144
Nc1cc2c(cc1N)OCC(=O)N2 | 252 to 254
ClCc1cn2cccnc2n1 | 125 to 127
Cc1cc(C(=O)CCl)c(C)s1 | 53 to 57

SMILES | melting point [°C]
O=C(O)C(=O)Nc1ccc(Br)cc1C(F)(F)F | 116 to 118
Cn1cnnc1SCC(=O)Nc1cccc(C(=O)O)c1 | 231 to 233
CC(C)(C)c1ccc(C2CCCC(O)C2)cc1 (stereo not given) | 75 to 77
CCCn1nc(C(=O)O)ccc1=O | 132 to 134
Cc1cc(C(=O)O)cc(C)c1OC(F)F | 189 to 191
NNC(=S)Nc1cccnc1 | 174 to 176
O=C(O)c1ccccc1SCC(F)(F)F | 169 to 171
N#Cc1cnn(-c2ccccc2)c1N | 137 to 139
O=C1COc2cc(NC(=O)OCC(F)(F)F)c(Cl)cc2N1 | 227 to 229
NC1CCN(c2c(F)cccc2F)C1=O (stereo not given) | 62 to 64
CN(CC(=O)Nc1ccccc1C(F)(F)F)C(=O)CCl | 123 to 125
CC1(C(=O)O)CCCN1C(=O)OCc1ccccc1 (stereo not given) | 119 to 121
CC(Sc1ccc(Br)cc1)C(=O)O (stereo not given) | 113 to 115
O=C(O)CCNS(=O)(=O)c1ccc2c(c1)OCCCO2 | 200 to 205
O=C(O)c1cc(F)cc(Cl)c1O | 210 to 212
CCN(CC)S(=O)(=O)c1ccc(NN)nc1 | 134 to 136
O=C1CC2(CCCCC2)CC(=O)N1 | 169 to 171
Cc1ccc(N)cc1S(=O)(=O)N1CCCCCC1 | 44 to 46
O=S(=O)(Cl)c1ccc(S(F)(F)(F)(F)F)cc1 | 82 to 84
c1cc2c(cn1)NCCN2 | 135 to 137
O=c1[nH]cc(Br)c2sccc12 | 229 to 231
CC(C)N(C)S(=O)(=O)c1ccc(N)cc1 | 119 to 121
COC(=O)Cn1cc(C(C)=O)nn1 | 79 to 81
O=c1[nH]cnc2c1cnn2-c1ccc(F)cc1 | 243 to 246
